Measured values as given in ChEMBL document CHEMBL3046383, “Enantioselective Herbicidal Activity of Chiral α-Methylbenzylphenylureas against Cyperaceae and Echinochloa Paddy Weeds” (Biosci Biotechnol Biochem, 1998).
The source made the active and inactive calls. The rule behind the calls is not given here.

Tests used:
Echinochloa oryzicola [1] = test: Herbicidal activity against Echinochloa oryzicola assessed as phytotoxic activity ratings (0- no effect to 5-complete killing rating scale) at 100 g/a measured after 3 weeks post compound treatment under green house conditions; assay type: functional
Cyperus serotinus [2] = test: Herbicidal activity against Cyperus serotinus assessed as phytotoxic activity ratings (0- no effect to 5-complete killing rating scale) at 100 g/a measured after 3 weeks post compound treatment under green house conditions; assay type: functional
Oryza sativa [3] = test: Phytotoxicity against transplanted Oryza sativa (rice) seedlings assessed as phytotoxic activity ratings (0- no effect to 5-complete killing rating scale) at 100 g/a measured after 3 weeks post compound treatment under green house conditions; assay type: organism-based; settings: in vivo, 504 h
Oryza sativa [4] = test: Phytotoxicity against directly seeded Oryza sativa (rice) seedlings assessed as phytotoxic activity ratings (0- no effect to 5-complete killing rating scale) at 100 g/a measured after 3 weeks post compound treatment under green house conditions; assay type: organism-based; settings: in vivo, 504 h
[5] = tested on: Schoenoplectiella juncoides; test: Herbicidal activity against Schoenoplectiella juncoides var. Hotarui Ohwi assessed as phytotoxic activity ratings (0- no effect to 5-complete killing rating scale) at 100 g/a measured after 3 weeks post compound treatment under green house conditions; assay type: functional
Cyperus difformis = test: Herbicidal activity against Cyperus difformis assessed as phytotoxic activity ratings (0- no effect to 5-complete killing rating scale) at 100 g/a measured after 3 weeks post compound treatment under green house conditions; assay type: functional
Cyperus serotinus [6] = test: Herbicidal activity against Cyperus serotinus assessed as phytotoxic activity ratings (0- no effect to 5-complete killing rating scale) at 3.1 to 100 g/a measured after 3 weeks post compound treatment under green house conditions; assay type: functional
[7] = tested on: Schoenoplectiella juncoides; test: Herbicidal activity against Schoenoplectiella juncoides var. Hotarui Ohwi assessed as phytotoxic activity ratings (0- no effect to 5-complete killing rating scale) at 50 g/a measured after 3 weeks post compound treatment under green house conditions; assay type: functional
Echinochloa oryzicola [8] = test: Herbicidal activity against Echinochloa oryzicola assessed as phytotoxic activity ratings (0- no effect to 5-complete killing rating scale) at 6.2 g/a measured after 3 weeks post compound treatment under green house conditions; assay type: functional

Row | SMILES | Activity (Echinochloa oryzicola [1]) | Activity (Cyperus serotinus [2]) | Activity (Oryza sativa [3]) | Activity (Oryza sativa [4]) | Activity [5] | Activity (Cyperus difformis) | Activity (Cyperus serotinus [6]) | Activity [7] | Activity (Echinochloa oryzicola [8])
1 | CCc1ccc(NC(=O)N[C@H](C)c2ccccc2)cc1 | 0% | 40% | 0% | 0% | 40% | 40% | – | – | –
2 | CCc1ccccc1NC(=O)N[C@@H](C)c1ccccc1 | 0% | 0% | 0% | 0% | 10% | 40% | – | – | –
3 | CC(C)c1ccc(NC(=O)N[C@@H](C)c2ccccc2)cc1 | 0% | 0% | 0% | 0% | 0% | 0% | inactive | – | –
4 | C[C@H](NC(=O)Nc1ccccc1C(F)(F)F)c1ccccc1 | 10% | 0% | 0% | 0% | 0% | 0% | – | – | –
5 | Cc1ccccc1NC(=O)N[C@@H](C)c1ccccc1 | 0% | 0% | 0% | 0% | 0% | 0% | – | – | –
6 | Cc1ccc(NC(=O)N[C@@H](C)c2ccccc2)cc1 | 40% | 0% | 0% | 0% | 0% | 0% | – | – | –
7 | C[C@@H](NC(=O)Nc1ccccc1F)c1ccccc1 | 10% | 40% | 0% | 10% | 10% | 40% | – | – | –
8 | C[C@@H](NC(=O)Nc1c(F)cccc1F)c1ccccc1 | 40% | 40% | 0% | – | 40% | 40% | – | – | –
9 | CC(C)c1ccccc1NC(=O)N[C@@H](C)c1ccccc1 | 0% | 0% | 0% | 0% | 0% | 0% | – | – | –
10 | Cc1cccc(NC(=O)N[C@H](C)c2ccccc2)c1 | 40% | 80% | 0% | 10% | 80% | 80% | – | – | –
11 | C[C@@H](NC(=O)Nc1cccc(C(F)(F)F)c1)c1ccccc1 | 10% | 0% | 0% | 10% | – | 40% | – | 80% | –
12 | C[C@H](NC(=O)Nc1cccc(C(F)(F)F)c1)c1ccccc1 | 10% | 0% | 0% | 0% | 0% | 10% | – | – | –
13 | C[C@H](NC(=O)Nc1c(F)cccc1F)c1ccccc1 | 0% | 0% | 0% | 0% | 0% | 0% | – | – | –
14 | CCc1ccc(NC(=O)N[C@@H](C)c2ccccc2)cc1 | 0% | 0% | 0% | 0% | 0% | 0% | – | – | –
15 | C[C@@H](NC(=O)Nc1ccccc1)c1ccccc1 | 40% | 80% | 0% | 0% | 10% | 40% | – | – | –
16 | C[C@H](NC(=O)Nc1ccccc1F)c1ccccc1 | – | 0% | 0% | 40% | 0% | 10% | – | – | 80%
17 | Cc1cccc(NC(=O)N[C@@H](C)c2ccccc2)c1 | 10% | 0% | 0% | 10% | 0% | 0% | – | – | –
18 | CCCc1ccc(NC(=O)N[C@H](C)c2ccccc2)cc1 | – | 0% | 0% | 10% | 40% | 40% | – | – | 80%
19 | C[C@H](NC(=O)Nc1ccccc1C(C)(C)C)c1ccccc1 | 0% | 0% | 0% | 0% | 10% | 40% | – | – | –
20 | CCOC(=O)c1cccc(NC(=O)N[C@H](C)c2ccccc2)c1 | 0% | – | 0% | 0% | 0% | 0% | inactive | – | –

Row | SMILES | Activity (Echinochloa oryzicola [1]) | Activity (Cyperus serotinus [2]) | Activity (Oryza sativa [3]) | Activity (Oryza sativa [4]) | Activity [5] | Activity (Cyperus difformis) | Activity (Cyperus serotinus [6]) | Activity [7] | Activity (Echinochloa oryzicola [8])
21 | C[C@@H](NC(=O)Nc1ccc(Cl)c(Cl)c1)c1ccccc1 | 0% | – | 0% | 0% | 0% | 0% | inactive | – | –
22 | C[C@@H](NC(=O)Nc1ccc(Cl)cc1)c1ccccc1 | 0% | – | 0% | 0% | 0% | 0% | inactive | – | –
23 | C[C@@H](NC(=O)Nc1cc(F)cc(F)c1)c1ccccc1 | 0% | – | 0% | 0% | 0% | 0% | inactive | – | –
24 | Cc1cc(F)ccc1NC(=O)N[C@@H](C)c1ccccc1 | 0% | 40% | 0% | 0% | 40% | 10% | – | – | –
25 | CC(=O)c1ccccc1NC(=O)N[C@@H](C)c1ccccc1 | 0% | – | 0% | 0% | 0% | 0% | inactive | – | –
26 | C[C@H](NC(=O)Nc1ccc(C(F)(F)F)cc1)c1ccccc1 | 0% | – | 0% | 0% | 0% | 0% | inactive | – | –
27 | COc1cccc(NC(=O)N[C@@H](C)c2ccccc2)c1 | 0% | 0% | 0% | 0% | 0% | 0% | – | – | –
28 | C[C@@H](NC(=O)Nc1cccc(Br)c1)c1ccccc1 | 0% | – | 0% | 0% | 0% | 10% | inactive | – | –
29 | COc1ccccc1NC(=O)N[C@H](C)c1ccccc1 | 0% | – | 0% | 0% | 0% | 0% | inactive | – | –
30 | C[C@H](NC(=O)Nc1cc(C(F)(F)F)cc(C(F)(F)F)c1)c1ccccc1 | 0% | – | 0% | 0% | 0% | 0% | inactive | – | –
31 | C[C@@H](NC(=O)Nc1ccccc1Cl)c1ccccc1 | 0% | – | 0% | 0% | 0% | 10% | inactive | – | –
32 | COc1ccccc1NC(=O)N[C@@H](C)c1ccccc1 | 0% | – | 0% | 0% | 0% | 0% | inactive | – | –
33 | C[C@@H](NC(=O)Nc1cc(F)ccc1F)c1ccccc1 | 0% | – | 0% | 0% | 0% | 0% | inactive | – | –
34 | CC(=O)c1ccc(NC(=O)N[C@@H](C)c2ccccc2)cc1 | 0% | – | 0% | 0% | 0% | 0% | inactive | – | –
35 | CC(=O)c1ccc(NC(=O)N[C@H](C)c2ccccc2)cc1 | 40% | – | 0% | 0% | 0% | 0% | inactive | – | –
36 | CCCCCCc1ccc(NC(=O)N[C@H](C)c2ccccc2)cc1 | 0% | – | 0% | 0% | 0% | 0% | inactive | – | –
37 | CCOC(=O)c1ccc(NC(=O)N[C@H](C)c2ccccc2)cc1 | 0% | – | 0% | 0% | 0% | 0% | inactive | – | –
38 | Cc1cc(F)ccc1NC(=O)N[C@H](C)c1ccccc1 | 0% | 0% | 0% | 0% | 0% | 0% | – | – | –
39 | CCc1cccc(NC(=O)N[C@@H](C)c2ccccc2)c1 | 0% | 0% | 0% | 0% | 40% | 40% | – | – | –
40 | C[C@H](NC(=O)Nc1ccc(F)cc1)c1ccccc1 | 0% | – | 0% | 0% | 0% | 0% | inactive | – | –
